# Data as given in patent publication US20260308158A1, “TARGETING RNAS ASSOCIATED WITH TAUOPATHIES WITH SMALL MOLECULES” (University of Florida Research Foundation, Incorporated, priority 2023, published 2026).
# Tested on: WT I17T MAPT exon 10 mini-gene luciferase reporter
# Assay: Luciferase reporter assay, WT I17T mutant mini-gene in HeLa cells
# Format: cell-based
# Conditions: Homo sapiens, 48 h, 5 μM (highest dose), read-out: reduction of luciferase activity
# Method: Luciferase-reporter Assay to Study Exon 10 Alternative Splicing. The exon 10 mini-genes, both WT and DDPAC and mutant thereof, fused to firefly luciferase, have been previously described.^18 HeLa cells were seeded in 60 mm diameter dishes and incubated for 12-16 h to 70% confluency. They were then transfected with WT, WT+I17T, DDPAC, or DDPAC+I17T luciferase reporter minigenes using JetPrime (Polyplus Transfection) per the manufacturer's recommended protocol and incubated for 4 h. After transfection, the cells were collected by trypsinization and re-seeded in 96-well plates at 0.2×10^5 cells per well, followed by treatment of compounds after 4 h. Compound stocks prepared in DMSO were diluted in growth medium and added to cells with final DMSO concentration at 0.1% (v/v). After a 48 h treatment period, the cells were washed with 1× DPBS. Each well was added with a mixture of 10 μL WST-1 reagent and 90 μL of growth medium. After incubation at 37° C. for 45 min, absorbance was measured at 450 and 690 nm. A690 as background was subtracted from A450 to obtain A450′. […] The plate was incubated at room temperature for 20 min and the luminescence was measured with a […] plate reader (1000 ms integration time). The resulted luminescence was normalized to A450′.
smiles,measurement,value
"COc1cc(N)ncc1CCCN(C)CCCn1cnc2c3ccccc3n(C)c2c1=O [Compound 2, 3-(3-((3-(6-amino-4-methoxypyridin-3-yl)propyl)(methyl)amino)propyl)-5-methyl-3,5-dihydro-4H-pyrimido[5,4-b]indol-4-one]",inhibition at 5 µM,~15%
